pIC50: −log10 of the molar value.
What was measured:
[1] = target: Rod cGMP-specific 3',5'-cyclic phosphodiesterase alpha/beta (Homo sapiens, UniProt P16499+P35913); assay: PDE Enzyme Assays Using [3H]cGMP as Substrate: The following phosphodiesterase activities are measured using [3H]cGMP as reaction substrate: human PDE6A/6B. The catalytic active form of human PDE6 is a dimer composed of a α (human PDE6A) and β subunits (human PDE6B). The dimer of human PDE6A/6B is produced by the coexpression and purification strategy, using two purification steps, i.e., NiNTA and anti-FLAG Sepharose chromatography. The assay buffer is prepared to give a final concentration in the assay of 50 mM Tris-HCl, 8.3 mM MgCl2, 1.7 mM EDTA and 0.1% Bovine serum albumin at pH 7.5. The final enzyme concentration is 5 nM. The reactions are started by addition of the substrate, [3H]cGMP, to give a final concentration of 80 nM.; assay type: protein-complex assay
[2] = target: cGMP-inhibited 3',5'-cyclic phosphodiesterase 3A (Homo sapiens, UniProt Q14432); assay: PDE Enzyme Assays Using [3H]cAMP as Substrate: The following phosphodiesterase activities are measured using [3H]cAMP as reaction substrate: human PDE3A (catalytic domain) and human PDE4D. Both enzymes are cloned and purified following standard procedures. The assay buffer is prepared to give a final concentration in the assay of 50 mM Tris-HCl, 8.3 mM MgCl2, 1.7 mM ethylenediaminetetraacetic acid (EDTA) and 0.1% Bovine serum albumin at pH 7.5. Final enzyme concentrations are 0.008 and 0.021 nM for PDE3A and PDE4D, respectively. Reactions are started by addition of the substrate, [3H]cAMP, to give a final concentration of 47 nM.
[3] = target: Dual specificity calcium/calmodulin-dependent 3',5'-cyclic nucleotide phosphodiesterase 1A (Homo sapiens, UniProt P54750); assay: Ca2+-Calmodulin Dependent PDE Enzyme Assays: PDE1B, PDE1A, and PDE1C are cloned and purified following standard protein generation procedures. The assay buffer is prepared to give a final concentration in the assay of 50 mM Tris-HCl, 50 mM MgCl2, 4 mM CaCl2, 0.1% Bovine serum albumin and 6 U/ml Calmodulin in water, at pH 7.5. The final enzyme concentration is 0.25, 0.074 and 0.0012 nM, for PDE1A, PDE1B and PDE1C respectively. The reactions are started by addition of the substrate, [3H]cAMP, to give a final concentration of 47 nM.
Chain of Dual specificity calcium/calmodulin-dependent 3',5'-cyclic nucleotide phosphodiesterase 1A (P54750 whole entry): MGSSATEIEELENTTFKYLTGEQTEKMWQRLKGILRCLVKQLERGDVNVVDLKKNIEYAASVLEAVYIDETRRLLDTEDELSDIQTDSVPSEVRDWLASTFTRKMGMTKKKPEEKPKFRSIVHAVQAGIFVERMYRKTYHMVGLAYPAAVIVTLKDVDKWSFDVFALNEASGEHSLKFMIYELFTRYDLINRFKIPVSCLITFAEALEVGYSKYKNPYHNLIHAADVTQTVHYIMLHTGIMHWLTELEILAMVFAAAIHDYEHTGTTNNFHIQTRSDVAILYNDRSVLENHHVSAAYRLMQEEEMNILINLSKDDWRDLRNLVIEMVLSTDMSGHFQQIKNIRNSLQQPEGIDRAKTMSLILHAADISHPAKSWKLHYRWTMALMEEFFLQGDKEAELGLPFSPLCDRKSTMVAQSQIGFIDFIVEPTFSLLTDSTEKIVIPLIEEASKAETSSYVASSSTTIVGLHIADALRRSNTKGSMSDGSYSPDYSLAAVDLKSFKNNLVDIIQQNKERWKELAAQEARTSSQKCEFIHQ

Chain of cGMP-inhibited 3',5'-cyclic phosphodiesterase 3A (Q14432 whole entry, the tested form may be a part): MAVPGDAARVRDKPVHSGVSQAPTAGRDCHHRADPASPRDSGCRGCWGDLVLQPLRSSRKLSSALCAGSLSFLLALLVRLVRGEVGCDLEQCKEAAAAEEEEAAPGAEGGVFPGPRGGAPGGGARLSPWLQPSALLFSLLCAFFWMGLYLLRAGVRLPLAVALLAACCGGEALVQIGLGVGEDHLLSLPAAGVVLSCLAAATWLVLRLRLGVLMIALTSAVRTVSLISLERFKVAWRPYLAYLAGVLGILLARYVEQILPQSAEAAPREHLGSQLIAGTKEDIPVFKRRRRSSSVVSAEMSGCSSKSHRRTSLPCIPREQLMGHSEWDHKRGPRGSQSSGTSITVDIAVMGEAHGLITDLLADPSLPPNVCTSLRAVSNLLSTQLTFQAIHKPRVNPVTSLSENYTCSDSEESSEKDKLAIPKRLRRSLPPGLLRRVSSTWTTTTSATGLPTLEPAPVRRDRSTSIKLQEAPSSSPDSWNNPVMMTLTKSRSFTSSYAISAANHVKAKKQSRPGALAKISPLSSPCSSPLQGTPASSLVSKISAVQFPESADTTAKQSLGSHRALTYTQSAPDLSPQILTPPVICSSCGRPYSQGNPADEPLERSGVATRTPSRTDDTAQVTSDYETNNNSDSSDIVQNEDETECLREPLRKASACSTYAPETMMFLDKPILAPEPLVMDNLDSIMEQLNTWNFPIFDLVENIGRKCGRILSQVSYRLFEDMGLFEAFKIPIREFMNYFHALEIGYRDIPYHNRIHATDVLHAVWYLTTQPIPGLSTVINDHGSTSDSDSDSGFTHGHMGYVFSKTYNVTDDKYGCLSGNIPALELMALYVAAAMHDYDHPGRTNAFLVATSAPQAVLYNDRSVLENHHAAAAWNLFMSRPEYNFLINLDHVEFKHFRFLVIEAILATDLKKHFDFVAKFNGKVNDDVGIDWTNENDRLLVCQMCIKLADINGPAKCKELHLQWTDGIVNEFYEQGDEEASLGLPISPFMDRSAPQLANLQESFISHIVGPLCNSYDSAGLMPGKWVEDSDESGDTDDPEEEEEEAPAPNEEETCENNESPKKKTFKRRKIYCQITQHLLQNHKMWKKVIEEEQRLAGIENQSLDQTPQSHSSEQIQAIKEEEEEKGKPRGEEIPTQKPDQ
Chain of Rod cGMP-specific 3',5'-cyclic phosphodiesterase alpha/beta (P35913 whole entry): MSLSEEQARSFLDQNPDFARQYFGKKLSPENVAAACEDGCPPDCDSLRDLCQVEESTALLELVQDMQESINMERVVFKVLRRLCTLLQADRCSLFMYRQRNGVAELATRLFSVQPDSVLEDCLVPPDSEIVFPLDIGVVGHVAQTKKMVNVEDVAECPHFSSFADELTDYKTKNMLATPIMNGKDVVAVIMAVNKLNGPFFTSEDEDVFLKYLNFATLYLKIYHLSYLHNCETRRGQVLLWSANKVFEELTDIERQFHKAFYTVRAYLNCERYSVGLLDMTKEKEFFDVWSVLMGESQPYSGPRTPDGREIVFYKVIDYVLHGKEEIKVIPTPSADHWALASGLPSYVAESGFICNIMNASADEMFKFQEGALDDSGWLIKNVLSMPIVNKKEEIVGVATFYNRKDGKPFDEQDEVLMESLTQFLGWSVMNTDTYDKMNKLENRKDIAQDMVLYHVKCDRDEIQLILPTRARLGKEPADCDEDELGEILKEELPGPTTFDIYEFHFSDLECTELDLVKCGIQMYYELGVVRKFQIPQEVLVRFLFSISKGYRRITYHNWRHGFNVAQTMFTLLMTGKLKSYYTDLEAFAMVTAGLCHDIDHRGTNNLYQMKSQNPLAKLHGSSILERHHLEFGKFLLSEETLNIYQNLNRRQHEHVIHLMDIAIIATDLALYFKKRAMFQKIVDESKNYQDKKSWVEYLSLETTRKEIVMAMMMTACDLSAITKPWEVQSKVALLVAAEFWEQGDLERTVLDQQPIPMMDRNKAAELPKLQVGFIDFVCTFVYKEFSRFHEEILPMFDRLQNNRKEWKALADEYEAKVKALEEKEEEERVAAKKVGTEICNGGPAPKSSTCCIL
Chain of Rod cGMP-specific 3',5'-cyclic phosphodiesterase alpha/beta (P16499 whole entry): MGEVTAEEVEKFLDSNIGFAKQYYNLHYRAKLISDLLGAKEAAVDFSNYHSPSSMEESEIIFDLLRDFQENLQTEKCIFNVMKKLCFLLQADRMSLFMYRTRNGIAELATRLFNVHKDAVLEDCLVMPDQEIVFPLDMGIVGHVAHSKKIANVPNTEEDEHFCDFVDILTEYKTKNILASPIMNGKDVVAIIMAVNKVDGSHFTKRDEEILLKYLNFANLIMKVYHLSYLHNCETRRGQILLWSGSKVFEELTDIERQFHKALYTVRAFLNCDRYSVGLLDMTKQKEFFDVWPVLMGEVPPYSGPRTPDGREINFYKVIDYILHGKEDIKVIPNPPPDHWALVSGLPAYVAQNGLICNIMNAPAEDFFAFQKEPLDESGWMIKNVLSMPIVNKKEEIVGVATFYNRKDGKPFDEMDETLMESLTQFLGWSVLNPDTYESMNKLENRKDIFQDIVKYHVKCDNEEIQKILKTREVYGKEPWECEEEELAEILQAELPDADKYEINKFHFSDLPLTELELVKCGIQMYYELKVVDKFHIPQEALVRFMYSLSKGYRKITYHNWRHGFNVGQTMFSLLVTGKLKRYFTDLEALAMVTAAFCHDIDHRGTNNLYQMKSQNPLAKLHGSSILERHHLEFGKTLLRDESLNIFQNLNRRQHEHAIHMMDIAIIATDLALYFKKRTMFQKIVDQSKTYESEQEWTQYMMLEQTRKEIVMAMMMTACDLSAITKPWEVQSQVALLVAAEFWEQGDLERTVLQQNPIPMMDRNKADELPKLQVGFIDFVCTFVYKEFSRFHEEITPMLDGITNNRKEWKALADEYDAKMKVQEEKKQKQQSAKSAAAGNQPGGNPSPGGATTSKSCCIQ

| pIC50 [1] | pIC50 [2] | pIC50 [3] | Compound |
| --- | --- | --- | --- |
| 5.41 | < 4.00 | 9.00 | CCCCn1c(=O)c2nnc(C3(C4CC4)CC3)n2c2ncc(CO)cc21 |
| 6.01 | < 4.00 | 9.67 | CCCCn1c(=O)c2nnc(C3(C4CC4)CC3)n2c2ncc(CC)cc21 |
